Data published in ChEMBL document CHEMBL1134890, “Preparation of oxime dual NK(1)/NK(2) antagonists with reduced NK(3) affinity” (Bioorg Med Chem Lett, 2002).
pKi: −log10 of the molar value.

What was measured:
Type in all cases: cell-based
Substance-P receptor = Substance-P receptor (Homo sapiens, UniProt P25103); assay: Binding affinity against recombinant human tachykinin receptor 1 in CHO cells using [3H]-Sar SP as radioligand
Neuromedin-K receptor = target: T1, Neuromedin-K receptor (Homo sapiens, UniProt P29371); assay: Binding affinity against recombinant human tachykinin receptor 3 in CHO cells using [125I][MePhe]-NKB as radioligand
T1 sequence (P29371 whole entry): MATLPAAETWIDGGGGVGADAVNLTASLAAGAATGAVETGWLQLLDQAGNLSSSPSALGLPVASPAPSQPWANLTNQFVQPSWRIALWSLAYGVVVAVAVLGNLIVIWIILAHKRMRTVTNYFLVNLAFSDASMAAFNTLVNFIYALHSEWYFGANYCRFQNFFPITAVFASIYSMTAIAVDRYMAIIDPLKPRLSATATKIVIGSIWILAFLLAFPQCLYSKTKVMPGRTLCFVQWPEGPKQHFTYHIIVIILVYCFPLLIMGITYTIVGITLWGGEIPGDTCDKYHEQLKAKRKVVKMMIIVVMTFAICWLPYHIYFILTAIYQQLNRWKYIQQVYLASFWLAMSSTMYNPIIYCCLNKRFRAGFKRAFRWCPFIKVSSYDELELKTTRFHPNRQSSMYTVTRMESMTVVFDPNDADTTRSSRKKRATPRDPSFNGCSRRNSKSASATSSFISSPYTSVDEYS

Substance-K receptor = target: T2, Substance-K receptor (Homo sapiens, UniProt P21452); assay: Binding affinity against recombinant human tachykinin receptor 2 in CHO cells using [3H]-NKA as radioligand
T2 sequence (P21452 whole entry): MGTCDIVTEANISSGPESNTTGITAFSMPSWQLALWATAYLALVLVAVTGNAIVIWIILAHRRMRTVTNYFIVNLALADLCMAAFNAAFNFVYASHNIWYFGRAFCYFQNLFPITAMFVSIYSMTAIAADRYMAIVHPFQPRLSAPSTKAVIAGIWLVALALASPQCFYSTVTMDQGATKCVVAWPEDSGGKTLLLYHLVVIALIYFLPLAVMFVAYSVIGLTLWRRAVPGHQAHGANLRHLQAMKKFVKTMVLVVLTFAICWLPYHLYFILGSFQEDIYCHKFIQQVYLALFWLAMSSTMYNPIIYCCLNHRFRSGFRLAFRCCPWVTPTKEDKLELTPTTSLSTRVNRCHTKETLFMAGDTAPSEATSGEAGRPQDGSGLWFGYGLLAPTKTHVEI

Substance-P receptor, sequence (P25103 whole entry): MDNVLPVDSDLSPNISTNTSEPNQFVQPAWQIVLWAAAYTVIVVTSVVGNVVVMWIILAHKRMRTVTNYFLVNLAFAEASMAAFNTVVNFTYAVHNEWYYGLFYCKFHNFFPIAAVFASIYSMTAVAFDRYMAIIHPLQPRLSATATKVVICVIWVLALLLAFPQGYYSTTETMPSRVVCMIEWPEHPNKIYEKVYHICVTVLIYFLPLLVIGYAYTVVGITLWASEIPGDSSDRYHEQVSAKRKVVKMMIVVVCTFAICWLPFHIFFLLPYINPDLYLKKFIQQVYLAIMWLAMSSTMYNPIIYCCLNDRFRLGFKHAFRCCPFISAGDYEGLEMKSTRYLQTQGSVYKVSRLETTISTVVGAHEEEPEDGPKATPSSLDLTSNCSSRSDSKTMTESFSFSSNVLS

## CCN(C/C(=N\OC)[C@H](CCN1CCC(n2c(=O)n(CC(=O)O)c3ccccc32)CC1)c1ccc(Cl)c(Cl)c1)C(=O)c1cc(Cl)cc(Cl)c1
Substance-P receptor
  pKi: 8.62
Neuromedin-K receptor
  pKi: 6.75
Substance-K receptor
  pKi: 8.28

## CO/N=C(\CN(C)C(=O)c1cc(Cl)cc(Cl)c1)[C@H](CCN1CCC(N2CCCN(C)C2=O)CC1)c1ccc(Cl)c(Cl)c1
Substance-P receptor
  pKi: 9.40
Neuromedin-K receptor
  pKi: 9.10
Substance-K receptor
  pKi: 9.15

## CCN(C/C(=N\OC)[C@H](CCN1CCC(n2c(=O)n(CC#N)c3ccccc32)CC1)c1ccc(Cl)c(Cl)c1)C(=O)c1cc(Cl)cc(Cl)c1
Substance-P receptor
  pKi: 8.64
Neuromedin-K receptor
  pKi: 6.17
Substance-K receptor
  pKi: 8.60

## CO/N=C(\CN(C)C(=O)c1cc(Cl)cc(Cl)c1)[C@H](CCN1CCC(n2c(=O)n(CC(=O)O)c3ccccc32)CC1)c1ccc(Cl)c(Cl)c1
Substance-P receptor
  pKi: 8.89
Neuromedin-K receptor
  pKi: 7.96
Substance-K receptor
  pKi: 8.77

## CO/N=C(\CN(C)C(=O)c1cc(Cl)cc(Cl)c1)[C@H](CCN1CCC(N2CCCN(CCNS(C)(=O)=O)C2=O)CC1)c1ccc(Cl)c(Cl)c1
Substance-P receptor
  pKi: 9.22
Neuromedin-K receptor
  pKi: 9.40
Substance-K receptor
  pKi: 9.30

## CO/N=C(\CN(C)C(=O)c1cc(Cl)cc(Cl)c1)[C@H](CCN1CCC(N2CCCN(Cc3ccccn3)C2=O)CC1)c1ccc(Cl)c(Cl)c1
Substance-P receptor
  pKi: 9.15
Neuromedin-K receptor
  pKi: 9.10
Substance-K receptor
  pKi: 9.15

## CCN(C/C(=N\OC)[C@H](CCN1CCC(n2c(=O)[nH]c3ccccc32)CC1)c1ccc(Cl)c(Cl)c1)C(=O)c1cc(Cl)cc(Cl)c1
Substance-P receptor
  pKi: 8.60
Neuromedin-K receptor
  pKi: 7.01
Substance-K receptor
  pKi: 8.59

## CCN(C/C(=N\OC)[C@H](CCN1CCC(n2c(=O)n(Cc3ccccn3)c3ccccc32)CC1)c1ccc(Cl)c(Cl)c1)C(=O)c1cc(Cl)cc(Cl)c1
Substance-P receptor
  pKi: 8.57
Neuromedin-K receptor
  pKi: 6.51
Substance-K receptor
  pKi: 8.55

## CCN(C/C(=N\OC)[C@H](CCN1CCC(n2c(=O)n(CCOC)c3ccccc32)CC1)c1ccc(Cl)c(Cl)c1)C(=O)c1cc(Cl)cc(Cl)c1
Substance-P receptor
  pKi: 8.70
Neuromedin-K receptor
  pKi: 6.24
Substance-K receptor
  pKi: 8.40

## CCN(C/C(=N\OC)[C@H](CCN1CCC(n2c(=O)n(CC(=O)NCCOC)c3ccccc32)CC1)c1ccc(Cl)c(Cl)c1)C(=O)c1cc(Cl)cc(Cl)c1
Substance-P receptor
  pKi: 8.72
Neuromedin-K receptor
  pKi: 6.02
Substance-K receptor
  pKi: 8.39

## CO/N=C(\CN(C)C(=O)c1cc(Cl)cc(Cl)c1)[C@H](CCN1CCC(n2c(=O)n(CC(=O)OC)c3ccccc32)CC1)c1ccc(Cl)c(Cl)c1
Substance-P receptor
  pKi: 8.89
Neuromedin-K receptor
  pKi: 7.54
Substance-K receptor
  pKi: 8.74

## CO/N=C(\CN(C)C(=O)c1cc(Cl)cc(Cl)c1)[C@H](CCN1CCC(N2CCCN([C@H](CO)C(N)=O)C2=O)CC1)c1ccc(Cl)c(Cl)c1
Substance-P receptor
  pKi: 9.22
Neuromedin-K receptor
  pKi: 9.52
Substance-K receptor
  pKi: 9.30

## CCOC(=O)[C@@H](Cc1ccc(O)cc1)N1CCCN(C2CCN(CC[C@@H](/C(CN(C)C(=O)c3cc(Cl)cc(Cl)c3)=N/OC)c3ccc(Cl)c(Cl)c3)CC2)C1=O
Substance-P receptor
  pKi: 8.80
Neuromedin-K receptor
  pKi: 7.96
Substance-K receptor
  pKi: 8.92

## CO/N=C(\CN(C)C(=O)c1cc(Cl)cc(Cl)c1)[C@H](CCN1CCC(N2CCCN(C(C)C)C2=O)CC1)c1ccc(Cl)c(Cl)c1
Substance-P receptor
  pKi: 9.05
Neuromedin-K receptor
  pKi: 9.22
Substance-K receptor
  pKi: 9.10

## CO/N=C(\CN(C)C(=O)c1cc(Cl)cc(Cl)c1)[C@H](CCN1CCC(n2c(=O)n(C)c3ccccc32)CC1)c1ccc(Cl)c(Cl)c1
Neuromedin-K receptor
  pKi: 7.70

## CO/N=C(\CN(C)C(=O)c1cc(Cl)cc(Cl)c1)[C@H](CCN1CCC(N2CCCN(CC(N)=O)C2=O)CC1)c1ccc(Cl)c(Cl)c1
Substance-P receptor
  pKi: 9.52
Neuromedin-K receptor
  pKi: 9.40
Substance-K receptor
  pKi: 9.70

## CCNC(=O)Cn1c(=O)n(C2CCN(CC[C@@H](/C(CN(CC)C(=O)c3cc(Cl)cc(Cl)c3)=N/OC)c3ccc(Cl)c(Cl)c3)CC2)c2ccccc21
Substance-P receptor
  pKi: 8.52
Neuromedin-K receptor
  pKi: 6.55
Substance-K receptor
  pKi: 8.44

## CO/N=C(\CN(C)C(=O)c1cc(Cl)cc(Cl)c1)[C@H](CCN1CCC(N2CCCN(N3CCOCC3)C2=O)CC1)c1ccc(Cl)c(Cl)c1
Substance-P receptor
  pKi: 9.10
Neuromedin-K receptor
  pKi: 9.30
Substance-K receptor
  pKi: 9.05

## CO/N=C(\CN(C)C(=O)c1cc(Cl)cc(Cl)c1)[C@H](CCN1CCC(N2CCCN(CC(=N)NO)C2=O)CC1)c1ccc(Cl)c(Cl)c1
Substance-P receptor
  pKi: 9.22
Neuromedin-K receptor
  pKi: 9.30
Substance-K receptor
  pKi: 9.10

## CO/N=C(\CN(CCF)C(=O)c1cc(Cl)cc(Cl)c1)[C@H](CCN1CCC(n2c(O)nc3ccccc32)CC1)c1ccc(Cl)c(Cl)c1
Substance-P receptor
  pKi: 8.49
Neuromedin-K receptor
  pKi: 6.64
Substance-K receptor
  pKi: 8.31

## CO/N=C(\CN(C)C(=O)c1cc(Cl)cc(Cl)c1)[C@H](CCN1CCC(N2CCCN(Cc3ccoc3)C2=O)CC1)c1ccc(Cl)c(Cl)c1
Substance-P receptor
  pKi: 8.96
Neuromedin-K receptor
  pKi: 8.66
Substance-K receptor
  pKi: 8.96

## CO/N=C(\CN(C)C(=O)c1cc(Cl)cc(Cl)c1)[C@H](CCN1CCC(N2CCCN(Cc3nnn[nH]3)C2=O)CC1)c1ccc(Cl)c(Cl)c1
Neuromedin-K receptor
  pKi: 8.70

## CNC(=O)C[C@H]1CCCN(C2CCN(CC[C@@H](/C(CN(C)C(=O)c3cc(Cl)cc(Cl)c3)=N/OC)c3ccc(Cl)c(Cl)c3)CC2)C1=O
Substance-P receptor
  pKi: 8.89
Neuromedin-K receptor
  pKi: 9.52
Substance-K receptor
  pKi: 9.40

## CO/N=C(\CN(C)C(=O)c1cc(Cl)cc(Cl)c1)[C@H](CCN1CCC(n2c(=O)[nH]c3ccccc32)CC1)c1ccc(Cl)c(Cl)c1
Neuromedin-K receptor
  pKi: 8.00

## CO/N=C(\CN(C)C(=O)c1cc(Cl)cc(Cl)c1)[C@H](CCN1CCC(N2CCCN(CC(=O)OCc3ccccc3)C2=O)CC1)c1ccc(Cl)c(Cl)c1
Substance-P receptor
  pKi: 9.00
Neuromedin-K receptor
  pKi: 7.93
Substance-K receptor
  pKi: 8.92

## CNC(=O)CN1CCCN(C2CCN(CC[C@@H](/C(CN(C)C(=O)c3cc(Cl)cc(Cl)c3)=N/OC)c3ccc(Cl)c(Cl)c3)CC2)C1=O
Substance-P receptor
  pKi: 9.05
Neuromedin-K receptor
  pKi: 8.89
Substance-K receptor
  pKi: 8.92

## CCN(C/C(=N\OC)[C@H](CCN1CCC(n2c(=O)n(CC(N)=O)c3ccccc32)CC1)c1ccc(Cl)c(Cl)c1)C(=O)c1cc(Cl)cc(Cl)c1
Substance-P receptor
  pKi: 8.62
Neuromedin-K receptor
  pKi: 6.78
Substance-K receptor
  pKi: 8.32

## CO/N=C(\CN(C)C(=O)c1cc(Cl)cc(Cl)c1)[C@H](CCN1CCC(N2CCCN(CC(C)(C)O)C2=O)CC1)c1ccc(Cl)c(Cl)c1
Substance-K receptor
  pKi: 9.10

## CO/N=C(\CN(C)C(=O)c1cc(Cl)cc(Cl)c1)[C@H](CCN1CCC(N2CCCN(c3ccccn3)C2=O)CC1)c1ccc(Cl)c(Cl)c1
Substance-P receptor
  pKi: 8.72
Neuromedin-K receptor
  pKi: 9.30
Substance-K receptor
  pKi: 9.30

## CO/N=C(\CN(C(=O)c1cc(Cl)cc(Cl)c1)C1CC1)[C@H](CCN1CCC(n2c(O)nc3ccccc32)CC1)c1ccc(Cl)c(Cl)c1
Substance-P receptor
  pKi: 6.80
Neuromedin-K receptor
  pKi: 6.99
Substance-K receptor
  pKi: 8.60

## CO/N=C(\CN(C)C(=O)c1cc(Cl)cc(Cl)c1)[C@H](CCN1CCC(N2CCCN(Cc3ccsc3)C2=O)CC1)c1ccc(Cl)c(Cl)c1
Substance-P receptor
  pKi: 8.62
Neuromedin-K receptor
  pKi: 8.49
Substance-K receptor
  pKi: 8.92

## CO/N=C(\CN(C)C(=O)c1cc(Cl)cc(Cl)c1)[C@H](CCN1CCC(N2CCCN(O)C2=O)CC1)c1ccc(Cl)c(Cl)c1
Substance-P receptor
  pKi: 9.00
Neuromedin-K receptor
  pKi: 9.15
Substance-K receptor
  pKi: 9.15

## CO/N=C(\CN(C)C(=O)c1cc(Cl)cc(Cl)c1)[C@H](CCN1CCC(N2CCCN(C(C)(C)C(N)=O)C2=O)CC1)c1ccc(Cl)c(Cl)c1
Substance-P receptor
  pKi: 9.10
Neuromedin-K receptor
  pKi: 9.52
Substance-K receptor
  pKi: 9.40

## CO/N=C(\CN(CCF)C(=O)c1cc(Cl)cc(Cl)c1)[C@H](CCN1CCC(n2c(=O)n(CC(=O)O)c3ccccc32)CC1)c1ccc(Cl)c(Cl)c1
Substance-P receptor
  pKi: 8.92
Neuromedin-K receptor
  pKi: 6.52
Substance-K receptor
  pKi: 8.51
